In article PMC11995724, “Antibiotic target discovery by integrated phenotypic and activity-based profiling of electrophilic fragments” (Cell chemical biology, 2025):
Counter-ions that a name gives are not always drawn.

Assay: in vitro
Details: human, hek293t cells

SMILES | viability at 48 h, 25 µM
CC(=O)c1cccc(NC(=O)C(C)Cl)c1 (stereo not drawn) [6-K22, N-(3-acetylphenyl)-2-chloropropanamide] | 105%
CC(Cl)C(=O)NC1CCCN(S(=O)(=O)N2CCOCC2)C1 (stereo not drawn) [6-L03, 2-chloro-N-[1-(morpholine-4-sulfonyl)piperidin-3-yl]propanamide] | 111%
O=C(CCl)N1N=C(c2cccs2)CC1c1cccc(O)c1 (stereo not drawn) [6-L04, 2-chloro-1-[5-(3-hydroxyphenyl)-3-(thiophen-2-yl)-4,5-dihydro-1H-pyrazol-1-yl]ethan-1-one] | 0.561%
CC(Cl)C(=O)N1CCOC(c2ccnc(N(C)C)n2)C1 (stereo not drawn) [6-L05, 2-chloro-1-{2-[2-(dimethylamino)pyrimidin-4-yl]morpholin-4-yl}propan-1-one] | 99.1%
CCc1ccccc1NC(=O)CN(C)C(=O)CCl [6-L06, 2-chloro-N-{[(2-ethylphenyl)carbamoyl]methyl}-N-methylacetamide] | 0.728%
CC(NC(=O)CCl)c1nc(Cc2ccccc2)no1 (stereo not drawn) [6-L07, N-[1-(3-benzyl-1,2,4-oxadiazol-5-yl)ethyl]-2-chloroacetamide] | 1.28%
Cc1ccccc1CN1CCC(NC(=O)CCl)CC1 [6-L08, 2-chloro-N-{1-[(2-methylphenyl)methyl]piperidin-4-yl}acetamide hydrochloride] | 113%
O=C(CCl)N(Cc1cnn(-c2ccccc2)c1)C1CC1 [6-L09, 2-chloro-N-cyclopropyl-N-[(1-phenyl-1H-pyrazol-4-yl)methyl]acetamide] | 1.4%
CC(Cl)C(=O)Nc1nc(-c2ccccc2)cs1 (stereo not drawn) [6-L10, 2-chloro-N-(4-phenyl-1,3-thiazol-2-yl)propanamide] | 101%
O=C(CCl)N(Cc1ccc2c(c1)CCO2)C1CCCC1 [6-L11, 2-chloro-N-cyclopentyl-N-[(2,3-dihydro-1-benzofuran-5-yl)methyl]acetamide] | 0.358%
COc1cc(S(=O)(=O)N2CCOCC2)ccc1NC(=O)CCl [6-L12, 2-chloro-N-[2-methoxy-4-(morpholine-4-sulfonyl)phenyl]acetamide] | 0.942%
CC(Cl)C(=O)N1C2CCC1CC(N(C)C(=O)c1ccccc1)C2 (stereo not drawn) [6-L14, N-[8-(2-chloropropanoyl)-8-azabicyclo[3.2.1]octan-3-yl]-N-methylbenzamide] | 101%
CC(Cl)C(=O)NC1CC(C)N(c2ccccc2)C1 (stereo not drawn) [6-L15, 2-chloro-N-(5-methyl-1-phenylpyrrolidin-3-yl)propanamide] | 99.3%
CC(Cl)C(=O)N(C)C1CCCc2c1cnn2C (stereo not drawn) [6-L16, 2-chloro-N-methyl-N-(1-methyl-4,5,6,7-tetrahydro-1H-indazol-4-yl)propanamide] | 112%
CC(Cl)C(=O)N(C(C)CS(C)(=O)=O)C1CC1 (stereo not drawn) [6-L17, 2-chloro-N-cyclopropyl-N-(1-methanesulfonylpropan-2-yl)propanamide] | 112%
CC1CN(c2cccc(CN(C)C(=O)C(C)Cl)c2)S(=O)(=O)C1 (stereo not drawn) [6-L18, 2-chloro-N-methyl-N-{[3-(4-methyl-1,1-dioxo-1lambda6,2-thiazolidin-2-yl)phenyl]methyl}propanamide] | 112%
COCC(NC(=O)C(C)Cl)c1cccc(C#N)c1 (stereo not drawn) [6-L19, 2-chloro-N-[1-(3-cyanophenyl)-2-methoxyethyl]propanamide] | 107%
CC(Cl)C(=O)NC1CS(=O)(=O)Cc2ccccc21 (stereo not drawn) [6-L20, 2-chloro-N-(2,2-dioxo-3,4-dihydro-1H-2lambda6-benzothiopyran-4-yl)propanamide] | 93.5%
CC(Cl)C(=O)NC(c1cccs1)c1cccs1 (stereo not drawn) [6-L21, N-[bis(thiophen-2-yl)methyl]-2-chloropropanamide] | 100%
CCn1cc(CN(C)C(=O)C(C)Cl)nn1 (stereo not drawn) [6-L22, 2-chloro-N-[(1-ethyl-1H-1,2,3-triazol-4-yl)methyl]-N-methylpropanamide] | 94.7%
COc1ccc(C2CCCN2C(=O)CCl)cc1OC (stereo not drawn) [6-M03, 2-chloro-1-[2-(3,4-dimethoxyphenyl)pyrrolidin-1-yl]ethan-1-one] | 0.75%
O=C(CCl)Nc1ccc(CN2CCCCC2)cc1 [6-M04, 2-chloro-N-{4-[(piperidin-1-yl)methyl]phenyl}acetamide hydrochloride] | 0.0889%
CN(CC(=O)Nc1c(Cl)cccc1Cl)C(=O)CCl [6-M05, 2-chloro-N-{[(2,6-dichlorophenyl)carbamoyl]methyl}-N-methylacetamide] | 2.21%
CNC(=O)C(NC(=O)CCl)c1ccccc1 (stereo not drawn) [6-M06, 2-(2-chloroacetamido)-N-methyl-2-phenylacetamide] | 0.807%
CNS(=O)(=O)c1cc(NC(=O)CCl)ccc1C [6-M07, 2-chloro-N-[4-methyl-3-(methylsulfamoyl)phenyl]acetamide] | 0.859%
O=C(CCl)NC1CCS(=O)(=O)CC1 [6-M08, 2-chloro-N-(1,1-dioxo-1lambda6-thian-4-yl)acetamide] | 53.7%
COc1cc(C)c(C(C)NC(=O)CCl)cc1OC (stereo not drawn) [6-M09, 2-chloro-N-[1-(4,5-dimethoxy-2-methylphenyl)ethyl]acetamide] | 3.89%

SMILES | viability at 48 h, 25 µM
CCOc1ccccc1NC(=O)C(C)Cl (stereo not drawn) [6-M10, 2-chloro-N-(2-ethoxyphenyl)propanamide] | 93.2%
CCN(Cc1ccc(Cl)s1)C(=O)CCl [6-M11, 2-chloro-N-[(5-chlorothiophen-2-yl)methyl]-N-ethylacetamide] | 0.655%
O=C(CCl)NC(c1ccccc1)c1ccccc1 [6-M12, 2-chloro-N-(diphenylmethyl)acetamide] | 0.81%
CC(Cl)C(=O)Nc1ccc(S(=O)(=O)N2CCCC2)cc1 (stereo not drawn) [6-M13, 2-chloro-N-[4-(pyrrolidine-1-sulfonyl)phenyl]propanamide] | 117%
NC(=O)c1cc(-c2ccccc2)sc1NC(=O)CCl [6-M14, 2-(2-chloroacetamido)-5-phenylthiophene-3-carboxamide] | 0.446%
COc1ccc(CN(C)C(=O)CCl)cc1 [6-M15, 2-chloro-N-[(4-methoxyphenyl)methyl]-N-methylacetamide] | 0.805%
O=C(CCl)NCCc1ccc(Cl)cc1Cl [6-M16, 2-chloro-N-[2-(2,4-dichlorophenyl)ethyl]acetamide] | 1.06%
O=CN1CCN(C(=O)CCl)CC1 [6-M17, 4-(2-chloroacetyl)piperazine-1-carbaldehyde] | 2.22%
CC(Cl)C(=O)N(CCC#N)c1ccccc1 (stereo not drawn) [6-M18, 2-chloro-N-(2-cyanoethyl)-N-phenylpropanamide] | 105%
O=C(CCl)N1CCCC1c1ccccc1 (stereo not drawn) [6-M19, 2-chloro-1-(2-phenylpyrrolidin-1-yl)ethan-1-one] | 0.923%
O=C(CCl)N1CC2CCC(C1)O2 [6-M20, 2-chloro-1-{8-oxa-3-azabicyclo[3.2.1]octan-3-yl}ethan-1-one] | 1.12%
CC(c1cccs1)N(C)C(=O)CCl (stereo not drawn) [6-M21, 2-chloro-N-methyl-N-[1-(thiophen-2-yl)ethyl]acetamide] | 0.384%
CC(c1cccc(NC(=O)c2ccccc2)c1)N(C)C(=O)CCl (stereo not drawn) [6-M22, N-{3-[1-(2-chloro-N-methylacetamido)ethyl]phenyl}benzamide] | 0.237%
Cc1cc(C=C2CCN(C(=O)C(C)Cl)CC2)no1 (stereo not drawn) [6-N03, 2-chloro-1-{4-[(5-methyl-1,2-oxazol-3-yl)methylidene]piperidin-1-yl}propan-1-one] | 104%
Cc1ccc(C)c(NC(=O)CN(C)C(=O)CCl)c1 [6-N04, 2-chloro-N-{[(2,5-dimethylphenyl)carbamoyl]methyl}-N-methylacetamide] | 0.906%
CC(Cl)C(=O)N1CCC(n2c(=O)[nH]c3ccccc32)CC1 (stereo not drawn) [6-N05, 1-[1-(2-chloropropanoyl)piperidin-4-yl]-2,3-dihydro-1H-1,3-benzodiazol-2-one] | 109%
O=C(CCl)Nc1ccc2oc3ccccc3c2c1 [6-N06, 2-chloro-N-{8-oxatricyclo[7.4.0.0,2,7]trideca-1(9),2(7),3,5,10,12-hexaen-4-yl}acetamide] | 2.09%
CC(Cl)C(=O)N1CCOC(c2ccc(Cl)s2)C1 (stereo not drawn) [6-N07, 2-chloro-1-[2-(5-chlorothiophen-2-yl)morpholin-4-yl]propan-1-one] | 111%
O=C(CCl)NC1CCN(C(=O)CCc2ccccc2)CC1 [6-N08, 2-chloro-N-[1-(3-phenylpropanoyl)piperidin-4-yl]acetamide] | 1.6%
CCc1nc2cc(CNC(=O)C(C)Cl)ccc2n1C1CC1 (stereo not drawn) [6-N09, 2-chloro-N-[(1-cyclopropyl-2-ethyl-1H-1,3-benzodiazol-5-yl)methyl]propanamide] | 102%
CCN(CC)c1ccc(NC(=O)CCl)cc1 [6-N10, 2-chloro-N-[4-(diethylamino)phenyl]acetamide] | 2.56%
CC(Cl)C(=O)N1CCC(Cc2ccncc2)C1 (stereo not drawn) [6-N11, 2-chloro-1-{3-[(pyridin-4-yl)methyl]pyrrolidin-1-yl}propan-1-one] | 106%
N#CCCSc1ccccc1NC(=O)CCl [6-N12, 2-chloro-N-{2-[(2-cyanoethyl)sulfanyl]phenyl}acetamide] | 1.44%
CC(Cl)C(=O)Nc1ccc2c(c1)ncn2-c1ccccc1 (stereo not drawn) [6-N13, 2-chloro-N-(1-phenyl-1H-1,3-benzodiazol-5-yl)propanamide] | 105%
CC(Cl)C(=O)NCc1nnc2n1-c1ccccc1CC2 (stereo not drawn) [6-N14, 2-chloro-N-({4H,5H-[1,2,4]triazolo[4,3-a]quinolin-1-yl}methyl)propanamide] | 110%
CC(Cl)C(=O)NCCS(=O)(=O)c1cccs1 (stereo not drawn) [6-N15, 2-chloro-N-[2-(thiophene-2-sulfonyl)ethyl]propanamide] | 105%
CC(Cl)C(=O)N1CCCN(C)c2cc(F)ccc21 (stereo not drawn) [6-N16, 2-chloro-1-(7-fluoro-5-methyl-2,3,4,5-tetrahydro-1H-1,5-benzodiazepin-1-yl)propan-1-one] | 101%
